Data from patent EP2387997A1, “Use of dronedarone for the preparation of a medicament for the prevention of cardiovascular events in patients who developed permanent atrial fibrillation throughout the period the dronedarone is administered” (SANOFI, priority 2010, dated 2011).
Where a name gives a salt, the structure may show the parent alone. Read-outs that look alike come from different tables or passages of the source.

Assays:
[1] = system: patients who developed permanent atrial fibrillation/flutter; test: prospective, multinational, double-blind, randomized, multi-center, placebo-controlled, parallel group trial of dronedarone hydrochloride; format: in vivo
Experimental: • Patients in permanent atrial fibrillation • Patients in unstable hemodynamic condition such as acute pulmonary edema within 12 hours prior to start of study medication; cardiogenic shock; treatment with IV pressor agents; patients on respirator; congestive heart failure of stage NYHA IV within the last 4 weeks; uncorrected, hemodynamically significant primary obstructive valvular disease; hemodynamically significant obstructive cardomyopathy; a cardiac operation or revascularization procedure within 4 weeks preceding randomization • Planned major non-cardiac or cardiac surgery or procedures including surgery for valvular heart disease, coronary artery bypass graft (CABG), percutaneous coronary intervention (PCI), or on urgent cardiac transplantation list • Acute myocarditis or constrictive pericarditis • Bradycardia < 50 bpm and/or PR-interval ≥ 0.28 sec on the last 12-lead ECG. • Significant sinus node disease (documented pause of 3 seconds or more) or 2nd or 3rd degree atrioventricular block (AV-block) unless treated with a pacemaker.

[2] = system: patients with persistent atrial fibrillation; details: cited from earlier work; for number of strokes per 100 patient-years of follow-up: persistent atrial fibrillation, placebo 1.91, calculated from the article of Singh et al, page 1866; for increasing the time to a recurrence of atrial fibrillation: versus placebo; for increasing the time to a recurrence of atrial fibrillation / effectiveness in increasing the time to a recurrence of atrial fibrillation relative to sotalol: P<0.001
stroke = details: ATHENA trial; cited from earlier work

CCCCc1oc2ccc(NS(C)(=O)=O)cc2c1C(=O)c1ccc(OCCCN(CCCC)CCCC)cc1 [dronedarone hydrochloride]
events (stroke, Acute Coronary Syndrome (ACS) or cardiovascular death) ([1]; among the 178 patients who developed permanent atrial fibrillation/flutter on dronedarone hydrochloride, placebo group 24 events (295 patients)): 12 events | Calculated relative risk of stroke, Acute Coronary Syndrome (ACS) or cardiovascular death ([1]; dronedarone versus placebo, Cox's proportional hazard model, patients who developed permanent atrial fibrillation/flutter): 0.805 | patients developed permanent atrial fibrillation/flutter ([1]; of 2301 patients treated with dronedarone hydrochloride (400 mg of base, one tablet morning and evening, 12 to 30 months), placebo group 295): 178 patients | decrease of the relative risk of stroke, Acute Coronary Syndrome (ACS) or cardiovascular death ([1]; x = 1-RR, versus placebo, patients who developed permanent atrial fibrillation/flutter): 20%

CC(C)NCC(O)c1ccc(NS(C)(=O)=O)cc1 (centres unmarked) [sotalol]
number of strokes per 100 patient-years of follow-up [2]: 2.71 per 100 patient-years | increasing the time to a recurrence of atrial fibrillation [2]: significantly more effective than placebo

CCCCc1oc2ccccc2c1C(=O)c1cc(I)c(OCCN(CC)CC)c(I)c1 [amiodarone]
effectiveness in increasing the time to a recurrence of atrial fibrillation relative to sotalol ([2]; analysis according to the treatment actually received): four times as effective | effectiveness in increasing the time to a recurrence of atrial fibrillation relative to sotalol ([2]; intention-to-treat analysis): six times as effective as sotalol | number of strokes per 100 patient-years of follow-up [2]: 2.06 per 100 patient-years | increasing the time to a recurrence of atrial fibrillation [2]: significantly more effective than placebo

CCCCc1oc2ccc(NS(C)(=O)=O)cc2c1C(=O)c1ccc(OCCCN(CCCC)CCCC)cc1 [dronedarone, 2-n-butyl-3-[4-(3-di-n-butylaminopropoxy)benzoyl]-5-methylsulfonamido-benzofuranne]
incidence of stroke (stroke): ability to reduce the incidence of stroke
